Calls of active or inactive are those of the source. Unless noted, the rule behind the calls is not given here.

Data set [1] is described as follows: Effective permeability of the compound at pH 7.4 at 200 uM after 4 hrs by PAMPA-BBB assay. It counts as ADME. The following applies: read-out: Peff.
Data set [2] relates to SH-SY5Y. The data set can be described thus: Inhibition of Fe3+-induced caspase-3 activity in human SH-SY5Y cells expressing APPswe mutant at 1 uM after 72 hrs by AcDEVD substrate-based spectrophotometric analysis. It counts as cell-based.
The subject of data set [3] is SH-SY5Y. The data set can be described thus: Antiproliferative activity against human SH-SY5Y cells at 1 uM after 24 to 72 hrs by WST1 assay. It counts as cell-based.
Data set [4] has as its system SH-SY5Y. The data set can be described thus: Inhibition of Fe3+-mediated ROS generation in human SH-SY5Y cells expressing APPswe mutant at 1 uM after 72 hrs by DCF-DA dye-based fluorescence spectroscopic analysis. It is filed as cell-based.
Data set [5] is described as follows: Metal chelating activity assessed as compound-Cu2+ complex formation by UV-vis spectrophotometric analysis.
Data set [6] has as its system SH-SY5Y. Description: Inhibition of Zn2+-mediated ROS generation in human SH-SY5Y cells expressing APPswe mutant at 1 uM after 72 hrs by DCF-DA dye-based fluorescence spectroscopic analysis. It is filed as cell-based.
Data set [7] concerns SH-SY5Y. Description: Inhibition of Cu2+-mediated ROS generation in human SH-SY5Y cells expressing APPswe mutant at 1 uM after 72 hrs by DCF-DA dye-based fluorescence spectroscopic analysis. It counts as cell-based.
Data set [8] concerns SH-SY5Y. Description: Inhibition of Fe3+-mediated amyloid beta (1 to 42 residues) production in human SH-SY5Y cells expressing APPswe mutant at 1 uM after 72 hrs by ELISA based spectrophotometric analysis. It counts as cell-based.
In data set [9] the test system is SH-SY5Y. The data set can be described thus: Inhibition of Cu2+-mediated amyloid beta (1 to 42 residues) production in human SH-SY5Y cells expressing APPswe mutant at 1 uM after 72 hrs by ELISA based spectrophotometric analysis. It is filed as cell-based.
Data set [10] relates to SH-SY5Y. The data set can be described thus: Neuroprotective activity against amyloid beta (1 to 42 residues) induced cell death in human SH-SY5Y cells expressing APPswe mutant at 1 uM after 48 hrs by WST1 assay. It is filed as functional, cell-based.
Data set [11] deals with SH-SY5Y. The data set can be described thus: Inhibition of Cu2+-induced caspase-3 activity in human SH-SY5Y cells expressing APPswe mutant at 1 uM after 72 hrs by AcDEVD substrate-based spectrophotometric analysis. It counts as cell-based.
A short description of data set [12]: Metal chelating activity assessed as compound-Fe3+ complex formation by UV-vis spectrophotometric analysis.
The target in data set [13] is Acetylcholinesterase (Homo sapiens) (UniProt P22303). The data set can be described thus: Inhibition of acetylcholinesterase (unknown origin) at 1 uM using acetylthiocholine chloride as substrate measured for 5 to 40 mins.
Sequence of Acetylcholinesterase (Homo sapiens) (P22303 whole entry): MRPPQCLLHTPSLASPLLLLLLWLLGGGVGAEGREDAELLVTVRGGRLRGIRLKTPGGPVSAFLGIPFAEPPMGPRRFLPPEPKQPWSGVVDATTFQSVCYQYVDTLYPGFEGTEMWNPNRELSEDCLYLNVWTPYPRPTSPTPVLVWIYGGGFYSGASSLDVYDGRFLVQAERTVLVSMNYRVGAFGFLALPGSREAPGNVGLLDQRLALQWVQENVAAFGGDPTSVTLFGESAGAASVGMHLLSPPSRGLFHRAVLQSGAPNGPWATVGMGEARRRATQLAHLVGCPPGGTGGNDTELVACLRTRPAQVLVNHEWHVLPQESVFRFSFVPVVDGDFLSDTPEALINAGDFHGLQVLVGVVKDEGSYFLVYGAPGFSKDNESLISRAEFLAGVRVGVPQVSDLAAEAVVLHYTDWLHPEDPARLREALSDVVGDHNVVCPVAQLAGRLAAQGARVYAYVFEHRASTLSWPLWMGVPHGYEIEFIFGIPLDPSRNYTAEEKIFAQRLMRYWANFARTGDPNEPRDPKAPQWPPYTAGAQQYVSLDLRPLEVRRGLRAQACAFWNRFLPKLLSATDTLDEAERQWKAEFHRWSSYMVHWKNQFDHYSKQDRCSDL
Data set [14] in a line: Effective permeability of the compound at 10^-5 mol/L after 5 hrs by UV-based PAMPA. The following applies: read-out: Peff. It is filed as ADME.
Data set [15] has as its system SH-SY5Y. The data set can be described thus: Inhibition of Zn2+-induced caspase-3 activity in human SH-SY5Y cells expressing APPswe mutant at 1 uM after 72 hrs by AcDEVD substrate-based spectrophotometric analysis. It counts as cell-based.
For data set [16], the system named is SH-SY5Y. Description: Inhibition of Zn2+-induced toxicity in human SH-SY5Y cells expressing APPswe mutant assessed as increase in cell viability at 1 uM after 72 hrs by WST1 assay. It is filed as cell-based.
For data set [17], the system named is SH-SY5Y. The data set can be described thus: Inhibition of Cu2+-induced toxicity in human SH-SY5Y cells expressing APPswe mutant assessed as increase in cell viability at 1 uM after 72 hrs by WST1 assay. It is filed as cell-based.
Data set [18] concerns SH-SY5Y. Description: Inhibition of Zn2+-mediated amyloid beta (1 to 42 residues) production in human SH-SY5Y cells expressing APPswe mutant at 1 uM after 72 hrs by ELISA based spectrophotometric analysis. It is filed as cell-based.
In data set [19] the test system is SH-SY5Y. The data set can be described thus: Inhibition of Fe3+-induced toxicity in human SH-SY5Y cells expressing APPswe mutant assessed as increase in cell viability at 1 uM after 72 hrs by WST1 assay. It counts as cell-based.
The nature of data set [20]: Metal chelating activity assessed as compound-Zn2+ complex formation by UV-vis spectrophotometric analysis.

Regarding `CC(C)NCC(O)COc1cccc2ccccc12` (stereo not given) [PROPRANOLOL], in data set [1], the Papp at 4 h, 200 µM came to 10.3 ×10⁻⁶ cm/s.

For the molecule `Cc1ncc(CO)c(/C=N/NC(=O)CC[C@@H](C)[C@H]2CC[C@H]3[C@@H]4[C@H](O)C[C@@H]5C[C@H](O)CC[C@]5(C)[C@H]4C[C@H](O)[C@]23C)c1O`, the inhibition entry in the data set with SH-SY5Y [2], in the data set with SH-SY5Y [4], in the data set with SH-SY5Y [6], in the data set on SH-SY5Y [7], with SH-SY5Y [11] and in the data set with SH-SY5Y [15] was “Active” in each case. The inhibition entry in the data set on SH-SY5Y [16], with SH-SY5Y [17] and with SH-SY5Y [19] was “Active” throughout. In addition, the Activity result in the data set on SH-SY5Y [3] is listed as “Non-Toxic”. The outcome (in data set [5]; with SH-SY5Y [10]; in [12]; in data set [20]) was Active. The inhibition entry (with SH-SY5Y [8]; in the data set on SH-SY5Y [9]; in data set [13]; in the data set with SH-SY5Y [18]) was “inactive” throughout. Besides, in data set [14], the Papp at 5 h, 10 µM was 7.5 ×10⁻⁶ cm/s.

For the origin of these results see ChEMBL document CHEMBL4196074, “Metallomics for Alzheimer's disease treatment: Use of new generation of chelators combining metal-cation binding and transport properties” (Eur J Med Chem, 2018).
